Results as given in ChEMBL document CHEMBL3352658 (Eur J Med Chem, 2014).

Legend:
Tumor necrosis factor [1] = target: T1, Tumor necrosis factor (Homo sapiens, UniProt P01375); experiment: Inhibition of recombinant human TNFalpha binding to TNF receptor 1-ECD at 100 uM by surface plasmon resonance-based in vitro competitive binding assay
Tumor necrosis factor [2] = target: T1, Tumor necrosis factor; experiment: Inhibition of TNFalpha in HEK293T cells transfected with plasmid hRluc/TK/ luc2P/NF-kBRE/Hygro plasmid at 30 uM after 12 hrs by Dual-glo luciferase assay system; assay type: cell-based; settings: HEK-293T
Tumor necrosis factor [3] = target: T1, Tumor necrosis factor; experiment: Inhibition of TNFalpha in HEK293T cells transfected with plasmid hRluc/TK/ luc2P/NF-kBRE/Hygro plasmid after 12 hrs by Dual-glo luciferase assay system; assay type: cell-based, HEK-293T
Tumor necrosis factor [4] = target: T1, Tumor necrosis factor; experiment: Inhibition of TNFalpha (unknown origin) assessed as IkappaB-alpha phosphorylation in Hela cells after 15 mins by ELISA; assay type: cell-based
Tumor necrosis factor [5] = target: T1, Tumor necrosis factor; experiment: Inhibition of TNFalpha in HEK293T cells transfected with plasmid hRluc/TK/ luc2P/NF-kBRE/Hygro plasmid at 90 uM after 12 hrs by Dual-glo luciferase assay system; assay type: cell-based; settings: HEK-293T

T1 sequence (P01375 whole entry, the tested form may be a part): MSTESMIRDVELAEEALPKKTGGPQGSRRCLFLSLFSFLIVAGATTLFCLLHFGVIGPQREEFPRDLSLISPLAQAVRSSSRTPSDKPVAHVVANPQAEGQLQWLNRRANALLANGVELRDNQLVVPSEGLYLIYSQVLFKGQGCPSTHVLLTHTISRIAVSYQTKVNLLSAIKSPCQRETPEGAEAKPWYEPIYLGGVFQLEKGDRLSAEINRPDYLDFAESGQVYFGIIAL

SMILES	inhibition (Tumor necrosis factor [1])	further results
O=S(=O)(Nc1cc(Cl)c(O)c(Cl)c1)c1ccc2ccccc2c1	37%	inhibition (Tumor necrosis factor [2]): 30%; IC50 (Tumor necrosis factor [3]; read-out: IC50): > 100 µM
COc1ccc(C2Nc3ccccc3-c3nnc(SCc4ccccc4Cl)nc3O2)cc1C (stereo not drawn)	32%	–
O=S(=O)(Nc1ccc(O)c(Cl)c1)c1ccc(F)cc1	31%	inhibition (Tumor necrosis factor [2]): 30%; IC50 (Tumor necrosis factor [3]; read-out: IC50): > 100 µM
O=C1Nc2ccc(S(=O)(=O)Nc3ccc(O)c(Cl)c3)c3cccc1c23	28%	IC50 (Tumor necrosis factor [4]): 45.7 µM; IC50 (Tumor necrosis factor [3]; read-out: IC50): 42.3 µM
CCOc1cc(C2NC(=O)NC(c3ccccc3)=C2C(C)=O)c(Br)c(Br)c1OCC(N)=O (stereo not drawn)	16%	–
O=C(O)CCCNS(=O)(=O)c1ccc2c3c(cccc13)C(=O)N2	–	IC50 (Tumor necrosis factor [3]; hek-293t): Not Active
CCc1nnc(NC(=O)CSc2nnc(-c3ccc([N+](=O)[O-])cc3)n2-c2ccc(C)cc2)s1	35%	–
N#CC1=C(N)Oc2n[nH]c(-c3ccccc3)c2C1c1ccc(OCC(N)=O)cc1 (stereo not drawn)	20%	–
COC(=O)[C@@](NNc1ccc(C)c(C)c1)(NC(=O)c1ccc(Cl)cc1Cl)C(F)(F)F	17%	–
CCOc1cc(/C=C2\C(=O)Nc3ccc(Br)cc32)cc(Cl)c1O	24%	inhibition (Tumor necrosis factor [5]): 40%
O=C1Sc2c(S(=O)(=O)Nc3ccc(O)cc3)cc(S(=O)(=O)Nc3ccc(O)cc3)c3cccc1c23	52%	IC50 (Tumor necrosis factor [4]): 25.3 µM; IC50 (Tumor necrosis factor [3]; read-out: IC50): 14 µM
CC(=O)Oc1ccc(C)cc1N1C(=O)c2cccc([N+](=O)[O-])c2C1=O	68%	–
Cc1ccc(C(=O)C2=C(O)C(=O)N(c3cccc(C(F)(F)F)c3)C2c2ccccc2[N+](=O)[O-])cc1 (stereo not drawn)	26%	–
Cc1cccc(/N=C2/NC(=O)/C(=C/c3cc(C)n(-c4cc(C(=O)O)cc(C(=O)O)c4)c3C)S2)c1C	32%	–
